In patent publication US8471004B2, “Bicyclic compounds” (Hoffman-La Roche Inc., priority 2009, dated 2013) one finds IC50 data, which are given here for three molecules.

The target in this test is T1, human chemokine receptor 2 isoform B (Homo sapiens, UniProt P41597).
T1 construct: host or cells: CHOK1-CCR2B-A5 (CHO-K1)
T1 sequence (P41597 1-360 isoform P41597-2): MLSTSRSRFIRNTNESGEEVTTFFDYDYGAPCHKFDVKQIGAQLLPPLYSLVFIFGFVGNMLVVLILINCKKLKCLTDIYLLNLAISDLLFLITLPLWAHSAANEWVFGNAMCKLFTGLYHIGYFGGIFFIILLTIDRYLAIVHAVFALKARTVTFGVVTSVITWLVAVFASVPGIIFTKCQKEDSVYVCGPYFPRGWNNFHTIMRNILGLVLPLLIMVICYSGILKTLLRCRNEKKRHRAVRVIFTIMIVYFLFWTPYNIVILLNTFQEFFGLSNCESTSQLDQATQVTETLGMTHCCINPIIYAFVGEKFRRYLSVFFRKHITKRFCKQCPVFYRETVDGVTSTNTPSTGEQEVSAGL
Nature of the test: Calcium mobilization assay (CHOK1-CCR2B-A5 cells, FLIPR, MCP-1 stimulated). It is filed as cell-based. Particulars: Ca mobilisation assay for CCR2, antagonist activity, 50% inhibition of specific calcium increases after 20 nM MCP-1. An outline of the steps:
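FLIPR Fluo-4 calcium readout in CHO-K1 cells stably overexpressing human CCR2B; compounds first monitored 80 s for agonist activity, then after 20-30 min at 30 °C challenged with 20 nM MCP-1. Response is max minus basal fluorescence; antagonist value is concentration giving 50% inhibition of specific calcium increase.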
A general note: Calcium assays in cells follow changes in intracellular calcium, usually with a dye or a luminescent sensor.
Regarding `C[C@H]1C(=O)N2[C@@H](CCN3CCC4(CC4)[C@H](O)C3)CCC[C@H]2CN1C(=O)Nc1ccc(Cl)c(Cl)c1` [Example 65, (3S,6R,9aS)-6-[2-((S)-4-Hydroxy-6-aza-spiro[2.5]oct-6-yl)-ethyl]-3-methyl-4-oxo-octahydro-pyrido[1,2-a]pyrazine-2-carboxylic acid (3,4-dichloro-phenyl)-amide], the IC50 (usually the midpoint of a concentration-inhibition curve) was found to be 2.2 nM.
Take `C[C@H]1C(=O)N2[C@@H](CCN3CCC4(CC4)[C@H](O)C3)CCC[C@H]2CN1C(=O)Nc1cccc(Cl)c1` [Example 66, (3S,6R,9aS)-6-[2-((S)-4-Hydroxy-6-aza-spiro[2.5]oct-6-yl)-ethyl]-3-methyl-4-oxo-octahydro-pyrido[1,2-a]pyrazine-2-carboxylic acid (3-chloro-phenyl)-amide]: the IC50 was 3 nM.
As for `C[C@H]1C(=O)N2[C@@H](CCN3CCC4(CC4)[C@H](O)C3)CCC[C@H]2CN1C(=O)Nc1cccc(F)c1` [Example 67, (3S,6R,9aS)-6-[2-((S)-4-Hydroxy-6-aza-spiro[2.5]oct-6-yl)-ethyl]-3-methyl-4-oxo-octahydro-pyrido[1,2-a]pyrazine-2-carboxylic acid (3-fluoro-phenyl)-amide], the figure is 7.9 nM.
